Reference: patent US9409905B2, “Antibacterial compounds and methods for use” (PTC THERAPEUTICS, INC., priority 2011, dated 2016)

Tests used:
[1] = tested on: Staphylococcus aureus (S. aureus) 29213; experiment: Antibacterial activity, microbroth dilution MIC (Table 1); assay type: cell-based; details: microbroth dilution, Gram-positive S. aureus 29213, read-out: MIC, 29213
How it was run: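 Read-out: visual absence of growth. The lowest concentration meeting this gives the MIC, expressed in μg/mL, with microbroth dilution as the method.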

[2] = tested on: Escherichia coli (E. coli) BAS849; experiment: as above; assay type: cell-based; details: microbroth dilution, super sensitive Gram-negative E. coli BAS849, read-out: MIC, BAS849
How it was run: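 Growth inhibition by microbroth dilution. MIC = lowest μg/mL with no visible growth. Strain 25922 is the control Gram-negative; BAS849 is hypersensitive.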

[3] = tested on: K. pneumoniae MXX1232; experiment: Antibacterial activity, MIC, resistant strain (Table 4); assay type: cell-based; details: Klebsiella pneumoniae, MXX1232; resistant K. pneumoniae MMX1232, multi-drug resistant clinical isolate; read-out: MIC, MMX1232
Excerpt: (§1) The antibacterial activity from a microbroth dilution method may be presented as the minimum inhibitory concentration (MIC in μg/mL). The MIC value is the lowest concentration of drug which prevents macroscopically visible growth under test conditions.
(§2) Antibacterial activity of test compounds against the Gram-negative Acinetobacter baumannii (A. baumannii) BAA747 and Klebsiella pneumoniae (K. pneumoniae) 35657 bacterium and the resistant A. baumannii MXX2240 and K. pneumoniae MXX1232 strains are shown in Table 4. The MMX strains are multi-drug resistant clinical isolates.

[4] = tested on: A. baumannii MXX2240; experiment: as above; assay type: cell-based; details: Acinetobacter baumannii, MXX2240; resistant A. baumannii MMX2240, multi-drug resistant clinical isolate; read-out: MIC, MMX2240
Excerpt: as §1, §2

[5] = tested on: E. coli LZ3111; experiment: Antibacterial activity, MIC, quinolone resistant strain (Table 2); assay type: cell-based; details: Escherichia coli, LZ3111, read-out: MIC LZ3111
How it was run: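 MIC values (μg/mL) came from a microbroth dilution assay, scored as the lowest drug concentration at which no growth was visible by eye.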

[6] = tested on: Pseudomonas aeruginosa (P. aeruginosa) 27853; experiment: Antibacterial activity, MIC (Table 5); assay type: cell-based; details: P. aeruginosa 27853, read-out: MIC, 27853
Excerpt: as §1
Antibacterial activity of test compounds against the Gram-negative bacterium Pseudomonas aeruginosa (P. aeruginosa) 27853 is shown in Table 5.

[7] = tested on: E. coli 25922; experiment: Antibacterial activity, microbroth dilution MIC (Table 1); assay type: cell-based, Escherichia coli; details: Escherichia coli; microbroth dilution; control Gram-negative E. coli 25922 strain; read-out: MIC, 25922
How it was run: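 Lowest concentration stopping macroscopically visible growth under test conditions, by broth microdilution, defines the MIC (μg/mL).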

[8] = tested on: Klebsiella pneumoniae (K. pneumoniae) 35657; experiment: Antibacterial activity, MIC (Table 4); assay type: cell-based; details: K. pneumoniae 35657, read-out: MIC, 35657
Excerpt: as §1, §2

[9] = tested on: Acinetobacter baumannii (A. baumannii) BAA747; experiment: Antibacterial activity, MIC (Table 4); assay type: cell-based; details: A. baumannii BAA747, read-out: MIC, BAA747
Excerpt: as §1, §2

Measured: MIC

CNCCNCc1cc2cc(-c3[nH]c(=O)c(C(=O)O)c(O)c3C)ccc2n1C [Cpd 344, 4-hydroxy-5-methyl-6-(1-methyl-2-((2-(methylamino)ethylamino)methyl)-1H-indol-5-yl)-2-oxo-1,2-dihydropyridine-3-carboxylic acid]
12.5 to 150 µg/mL: all assays above

CCc1c(-c2ccc3c4c([nH]c3c2)CCN(C)C4)[nH]c(=O)c(C(=O)O)c1O [Cpd 451, 5-ethyl-4-hydroxy-6-(2-methyl-2,3,4,5-tetrahydro-1H-pyrido[4,3-b]indol-7-yl)-2-oxo-1,2-dihydropyridine-3-carboxylic acid]
< 1 µg/mL: [2] | [7] | [8]
3.5 to 12.5 µg/mL: [5] | [9]
12.5 to 150 µg/mL: all other assays above

Cc1c(-c2ccc3[nH]ncc3c2)[nH]c(=O)c(C(=O)O)c1O [Cpd 398, 4-hydroxy-6-(1H-indazol-5-yl)-5-methyl-2-oxo-1,2-dihydropyridine-3-carboxylic acid]
3.5 to 12.5 µg/mL: [5]
12.5 to 150 µg/mL: all other assays above

Cc1c(-c2ccc3c(c2)cc(CNC(C)C)n3C)[nH]c(=O)c(C(=O)O)c1O [Cpd 348, 4-hydroxy-6-(2-((isopropylamino)methyl)-1-methyl-1H-indol-5-yl)-5-methyl-2-oxo-1,2-dihydropyridine-3-carboxylic acid]
3.5 to 12.5 µg/mL: [7]
12.5 to 150 µg/mL: [1] | [3] | [6]
< 1 µg/mL: [2]
1 to 3.5 µg/mL: all other assays above

CCc1c(-c2ccc3c(c2)cc2n3CC(NC)C2)[nH]c(=O)c(C(=O)O)c1O.Cl (stereo not drawn) [Cpd 416, 5-ethyl-4-hydroxy-6-(2-(methylamino)-2,3-dihydro-1H-pyrrolo[1,2-a]indol-7-yl)-2-oxo-1,2-dihydropyridine-3-carboxylic acid hydrochloride]
3.5 to 12.5 µg/mL: [2]
12.5 to 150 µg/mL: all other assays above

CCc1c(-c2cccc3c2ccn3C)[nH]c(=O)c(C(=O)O)c1O [Cpd 403, 5-ethyl-4-hydroxy-6-(1-methyl-1H-indol-4-yl)-2-oxo-1,2-dihydropyridine-3-carboxylic acid]
3.5 to 12.5 µg/mL: [2]
12.5 to 150 µg/mL: all other assays above

Cc1c(-c2ccc3c(c2)cc(CN)n3C)[nH]c(=O)c(C(=O)O)c1O [Cpd 358, 6-(2-(aminomethyl)-1-methyl-1H-indol-5-yl)-4-hydroxy-5-methyl-2-oxo-1,2-dihydropyridine-3-carboxylic acid]
1 to 3.5 µg/mL: [2] | [5] | [8]
3.5 to 12.5 µg/mL: [4] | [7]
12.5 to 150 µg/mL: all other assays above

Cc1c(-c2cccc3c2ccn3C)[nH]c(=O)c(C(=O)O)c1O [Cpd 404, 4-hydroxy-5-methyl-6-(1-methyl-1H-indol-4-yl)-2-oxo-1,2-dihydropyridine-3-carboxylic acid]
3.5 to 12.5 µg/mL: [2]
12.5 to 150 µg/mL: all other assays above

CCc1c(-c2cc3cc(F)c(C)cc3[nH]2)[nH]c(=O)c(C(=O)O)c1O [Cpd 385, 5-ethyl-6-(5-fluoro-6-methyl-1H-indol-2-yl)-4-hydroxy-2-oxo-1,2-dihydropyridine-3-carboxylic acid]
< 1 µg/mL: [2]
3.5 to 12.5 µg/mL: [1]
12.5 to 150 µg/mL: all other assays above

CCc1c(-c2ccc3cc(C)cn3c2)[nH]c(=O)c(C(=O)O)c1O [Cpd 429, 5-ethyl-4-hydroxy-6-(2-methylindolizin-6-yl)-2-oxo-1,2-dihydropyridine-3-carboxylic acid]
12.5 to 150 µg/mL: all assays above

CCCc1ccc2[nH]c(-c3[nH]c(=O)c(C(=O)O)c(O)c3CC)cc2c1 [Cpd 383, 5-ethyl-4-hydroxy-2-oxo-6-(5-propyl-1H-indol-2-yl)-1,2-dihydropyridine-3-carboxylic acid]
< 1 µg/mL: [2]
3.5 to 12.5 µg/mL: [1]
12.5 to 150 µg/mL: all other assays above

CCCc1ccc2c(c1)cc(-c1[nH]c(=O)c(C(=O)O)c(O)c1CC)n2C [Cpd 409, 5-ethyl-4-hydroxy-6-(1-methyl-5-propyl-1H-indol-2-yl)-2-oxo-1,2-dihydropyridine-3-carboxylic acid]
1 to 3.5 µg/mL: [2]
3.5 to 12.5 µg/mL: [1]
12.5 to 150 µg/mL: all other assays above

CCc1c(-c2cn3ccccc3n2)[nH]c(=O)c(C(=O)O)c1O [Cpd 400, 5-ethyl-4-hydroxy-6-(imidazo[1,2-a]pyridin-2-yl)-2-oxo-1,2-dihydropyridine-3-carboxylic acid]
1 to 3.5 µg/mL: [2]
12.5 to 150 µg/mL: all other assays above

CCN(CC)Cc1cc2cc(-c3[nH]c(=O)c(C(=O)O)c(O)c3C)ccc2n1C [Cpd 357, 6-(2-((diethylamino)methyl)-1-methyl-1H-indol-5-yl)-4-hydroxy-5-methyl-2-oxo-1,2-dihydropyridine-3-carboxylic acid]
12.5 to 150 µg/mL: [1] | [3] | [6]
< 1 µg/mL: [2]
1 to 3.5 µg/mL: [5]
3.5 to 12.5 µg/mL: all other assays above

CCc1c(-c2ccc3c(c2)cc(CNCc2cccnc2)n3C)[nH]c(=O)c(C(=O)O)c1O.Cl [Cpd 220, 5-ethyl-4-hydroxy-6-(1-methyl-2-((pyridin-3-ylmethylamino)methyl)-1H-indol-5-yl)-2-oxo-1,2-dihydropyridine-3-carboxylic acid hydrochloride]
3.5 to 12.5 µg/mL: [8]
< 1 µg/mL: [2] | [7]
1 to 3.5 µg/mL: [1]
12.5 to 150 µg/mL: [3] | [5]

CCc1c(-c2ccc3c(c2)cc(CNCc2ccncc2)n3C)[nH]c(=O)c(C(=O)O)c1O.Cl [Cpd 221, 5-ethyl-4-hydroxy-6-(1-methyl-2-((pyridin-4-ylmethylamino)methyl)-1H-indol-5-yl)-2-oxo-1,2-dihydropyridine-3-carboxylic acid hydrochloride]
1 to 3.5 µg/mL: [1] | [7] | [8]
12.5 to 150 µg/mL: [3] | [5]
< 1 µg/mL: [2]

CCc1c(-c2ccc3c(c2)cc(CNCc2ccccc2)n3C)[nH]c(=O)c(C(=O)O)c1O.Cl [Cpd 214, 6-(2-((benzylamino)methyl)-1-methyl-1H-indol-5-yl)-5-ethyl-4-hydroxy-2-oxo-1,2-dihydropyridine-3-carboxylic acid hydrochloride]
1 to 3.5 µg/mL: [1]
< 1 µg/mL: [2] | [7]
12.5 to 150 µg/mL: [3] | [5] | [8]

CCc1c(-c2ccc3c(c2)cc(CN2C[C@@H]4[C@H](C2)[C@H]4NC)n3C)[nH]c(=O)c(C(=O)O)c1O [Cpd 208, 5-ethyl-4-hydroxy-6-(1-methyl-2-(((1R,5S,6s)-6-(methylamino)-3-azabicyclo[3.1.0]hexan-3-yl)methyl)-1H-indol-5-yl)-2-oxo-1,2-dihydropyridine-3-carboxylic acid]
12.5 to 150 µg/mL: [3] | [4]
3.5 to 12.5 µg/mL: [1] | [5]
< 1 µg/mL: [2] | [7]
